This is an account of results in US5688913A, “CS-1 peptidomimetics, compositions and methods of using the same” (Cytel Corporation, priority 1995, dated 1997).

Square brackets hold non-standard residues; d marks the D form. Peptide text beside a SMILES is read from it. * marks the point of attachment. Biotin = O=C1N[C@H]2[C@H](CS[C@H]2CCCCC(=O)*)N1; Quinaldoyl = O=C(c1ccc2ccccc2n1)*; hPhe = N[C@@H](CCc1ccccc1)C(=O)O; Cha = N[C@@H](CC1CCCCC1)C(=O)O; Morpholide = C1CN(*)CCO1; Cbz = O=C(OCc1ccccc1)*; PhAc = O=C(Cc1ccccc1)*; X14 = O=C(c1cc[nH]n1)*; Bz = O=C(c1ccccc1)*; Ahx = NCCCCCC(=O)O; NHBu = CCCCN*

Sequence of VLA-4 (P13612 34-1032): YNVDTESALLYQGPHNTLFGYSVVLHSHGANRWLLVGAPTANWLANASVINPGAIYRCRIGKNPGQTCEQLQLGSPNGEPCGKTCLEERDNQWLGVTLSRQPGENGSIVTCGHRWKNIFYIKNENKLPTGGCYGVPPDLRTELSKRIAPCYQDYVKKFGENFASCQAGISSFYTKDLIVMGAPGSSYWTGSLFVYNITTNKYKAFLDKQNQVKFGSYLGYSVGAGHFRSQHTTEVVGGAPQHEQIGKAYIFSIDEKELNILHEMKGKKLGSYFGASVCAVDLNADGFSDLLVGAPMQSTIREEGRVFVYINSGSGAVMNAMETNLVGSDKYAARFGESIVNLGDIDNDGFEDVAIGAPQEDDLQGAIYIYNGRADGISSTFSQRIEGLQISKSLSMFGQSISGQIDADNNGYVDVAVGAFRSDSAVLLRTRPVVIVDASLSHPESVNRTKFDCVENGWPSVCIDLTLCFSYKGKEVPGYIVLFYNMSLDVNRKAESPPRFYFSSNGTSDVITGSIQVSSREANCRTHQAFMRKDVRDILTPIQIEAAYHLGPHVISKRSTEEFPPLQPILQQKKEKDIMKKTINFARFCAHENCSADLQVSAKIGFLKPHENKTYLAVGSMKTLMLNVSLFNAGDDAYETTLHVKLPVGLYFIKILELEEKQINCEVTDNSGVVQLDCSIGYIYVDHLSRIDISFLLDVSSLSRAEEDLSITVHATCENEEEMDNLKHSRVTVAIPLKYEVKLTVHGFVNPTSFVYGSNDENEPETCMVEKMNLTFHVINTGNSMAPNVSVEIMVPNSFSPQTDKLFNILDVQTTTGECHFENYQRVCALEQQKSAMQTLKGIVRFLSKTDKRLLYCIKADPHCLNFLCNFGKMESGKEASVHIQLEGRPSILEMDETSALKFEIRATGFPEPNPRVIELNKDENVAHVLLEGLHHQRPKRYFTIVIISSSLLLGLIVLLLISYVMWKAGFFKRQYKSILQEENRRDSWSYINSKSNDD
Sequence of VLA-4 (P05556 21-798): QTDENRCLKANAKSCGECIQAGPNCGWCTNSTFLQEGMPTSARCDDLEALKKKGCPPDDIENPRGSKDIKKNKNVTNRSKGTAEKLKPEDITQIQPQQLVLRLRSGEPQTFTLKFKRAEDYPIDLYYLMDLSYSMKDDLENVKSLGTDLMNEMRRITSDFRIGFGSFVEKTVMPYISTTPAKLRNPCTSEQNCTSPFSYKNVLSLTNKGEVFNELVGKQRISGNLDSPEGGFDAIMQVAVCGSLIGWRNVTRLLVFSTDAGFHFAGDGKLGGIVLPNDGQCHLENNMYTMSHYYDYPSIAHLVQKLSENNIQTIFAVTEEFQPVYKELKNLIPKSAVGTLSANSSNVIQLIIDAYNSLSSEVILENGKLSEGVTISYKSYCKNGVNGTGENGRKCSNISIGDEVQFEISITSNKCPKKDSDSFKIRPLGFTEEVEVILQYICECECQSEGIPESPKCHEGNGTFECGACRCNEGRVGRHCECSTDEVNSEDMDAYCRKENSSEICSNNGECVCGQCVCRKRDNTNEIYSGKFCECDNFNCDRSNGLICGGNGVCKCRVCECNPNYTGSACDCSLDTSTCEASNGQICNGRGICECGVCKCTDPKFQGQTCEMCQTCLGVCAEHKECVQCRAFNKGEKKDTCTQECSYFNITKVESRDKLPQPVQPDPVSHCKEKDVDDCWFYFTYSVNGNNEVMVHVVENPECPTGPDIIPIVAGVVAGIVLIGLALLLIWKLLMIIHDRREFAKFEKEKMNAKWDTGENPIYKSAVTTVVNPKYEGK

One assay addresses VLA-4 (Homo sapiens, UniProt P05556+P13612). In words: cell-based. It is filed as cell-based. Also on record: host or cells: Jurkat (human T lymphoblastic line).
Settings: not given
As to the method: Binding inhibition is measured here as a concentration of peptide that inhibits one-half the binding between a standard number of Jurkat cells and a standard amount of CS-1 peptide bound to the surface of a microtiter plate well. Those concentrations are conveniently expressed as IC50 values, smaller numbers indicating a lower concentration required to inhibit 50 percent binding and therefore greater potency. Further specifics of this assay are provided hereinafter.
Jurkat cells (ATCC TIB 152), a human T lymphoblastic line, labeled with ^51 chromium were used to assay in vitro binding inhibition provided by various peptides discussed herein.
The plates were prepared as follows: The 25-mer CS-1 peptide (SEQ ID NO:1) dissolved at 0.5-1 μg/ml in a buffer of 0.1M NaHCO3 at pH 9.5 that also contained 10 μg/ml of bovine serum albumin (BSA) or a conjugate of the CS-1 peptide linked to ovalbumin (CS-1-OVA) dissolved at 1-2.5 μg/ml in the same buffer was used as the substrate. Each well of the microtiter plates was coated with 50 μl of substrate or buffer alone for controls. The wells were permitted to dry out completely and were then rinsed twice with PBS at pH 7.4. Non-specific binding sites of each well were then blocked using 200 μl per well of RPMI/1 percent BSA for two hours at room temperature. Both solid phase-affixed substrates provided similar results.
Jurkat cells (3-5×10^6 cells) were placed into a 15 ml Falcon™ round-bottom tube with a cap. The tube was centrifuged, and the extra medium was then removed.
Two hundred microliters of a ^51 Cr labeling solution were added to the centrifuged cells and maintained in contact with the cells for 90-120 minutes in a warm room. This procedure typically provides about 50,000-100,000 cpm/well with about 80-100 percent cell viability. Longer contact times provide a greater amount of labeling but lower cell viability.
The labeled cells are washed with (i) complete medium, (ii) 1 mM EDTA/PBS and then (iii) RPM1/1 percent BSA free of serum components. The cells are centrifuged after each washing. The cells are finally resuspended in serum-free RPMI/1 percent BSA at a concentration of 1×10^6 viable cells/ml, which provides a concentration that is diluted by one-half in the assay.
Inhibitor peptides are prepared as stock solutions at 20 mg/ml in DMSO in 1.5 ml cryogenic screwcap vials, and were stored at -70° C. Using Flow™ round-bottom or V-bottom microtiter plates, the inhibitor peptides were prepared at twice the assay concentration in RPMI/1 percent BSA at 60 μl well.
Four initial dilutions were typically used.
The ^51 Cr-labeled cells (1×10^6 cells at 60 μl/well) were then admixed with the diluted peptide solutions. The admixtures were maintained at room temperature (about 22° C.) for 30 minutes.
One hundred microliters of each inhibitor peptide/cell admixture were transferred to the substrate-coated wells. This was done in triplicate for each dilution. The resulting plates were incubated for 30 minutes at 37° C. and then washed gently three times with RPMI/1 percent BSA at 200 μl/well. Binding was observed microscopically, particularly after the second wash.
The bound cells were then lysed by the addition of a 0.5 percent solution of sodium dodecylsulfate in water at 100 μ/l well. The resulting solutions were then processed for counting and calculation of IC50 values following usual procedures. Appropriate positive and negative controls were used with each plate so that the results of separate assays could be normalized and compared.
The data of Table 1 are so normalized.
`CC[C@H](C)[C@H](N)C(=O)N[C@@H](CC(C)C)C(=O)N[C@@H](CC(=O)O)C(=O)N[C@@H](Cc1ccccc1)C(=O)N1CCC[C@@H]1C(N)=O` [I L D F p free amine amide] (H-ILDF[dP]-NH2): the “RELATIVE POTENCY (relative peptide inhibition of VLA-4 binding CS-1)” value is listed as 2. On the same count and under the same terms, for `CC(C)C[C@H](NC(=O)Cc1ccc(O)c(O)c1)C(=O)N[C@@H](CC(=O)O)C(=O)N[C@@H](Cc1ccccc1)C(=O)N1CCCCC1` the value was 81. Regarding `CC(C)C[C@H](N)C(=O)N[C@@H](CC(=O)O)C(=O)N[C@H](C(N)=O)C(C)C` [L D V free amine amide, reference compound] (H-Leu-Asp-Val-NH2), the “RELATIVE POTENCY (relative peptide inhibition of VLA-4 binding CS-1)” value worked out at 0. On the same count and under the same terms, as for `CC(C)C[C@H](NC(=O)OCc1ccccc1)C(=O)N[C@@H](CC(=O)O)C(=O)N[C@@H](Cc1ccccc1)C(=O)N1CCC[C@@H]1C(N)=O` [X L D F p benzyloxycarbonyl amide] (Cbz-LDF[dP]-NH2), the figure is 34; as for `CC(C)C[C@@H](C(=O)N[C@@H](CC(=O)O)C(=O)N[C@H](C(=O)N1CCC[C@@H]1C(N)=O)C(C)C)N1C(=O)c2ccccc2C1=O` [X L D V p phthalimido amide], 140; as for `Cc1cccc(C)c1C(=O)N[C@@H](CC(C)C)C(=O)N[C@@H](CC(=O)O)C(=O)N[C@H](C(=O)N1CCC[C@@H]1C(N)=O)C(C)C` [X L D V p 2,6-dimethylbenzoyl amide], 5. On the same count and under the same terms, as for `CC(C)C[C@H](NC(=O)[C@H](Cc1ccccc1)NC(=O)CCCCCNC(=O)CCCC[C@@H]1SC[C@@H]2NC(=O)N[C@@H]21)C(=O)N[C@@H](CC(=O)O)C(=O)N[C@@H](Cc1ccccc1)C(=O)N1CCC[C@@H]1C(N)=O` [B Z F L D F p, N-(biotinoyl-ε-aminocaproyl)-Phe-Leu-Asp-Phe-D-Pro-NH2] ({Biotin-Ahx}-FLDF[dP]-NH2), the figure is 150; as for `CC(C)CC(C(=O)NCc1ccccc1)C(=O)N[C@@H](CC(=O)O)C(=O)N[C@@H](Cc1ccccc1)C(=O)N1CCC[C@@H]1C(N)=O` (some centres unmarked), 2; as for `CC(=O)N[C@@H](CO)C(=O)N[C@@H](Cc1ccccc1)C(=O)N[C@@H](CC(=O)O)C(=O)N[C@@H](Cc1ccccc1)C(=O)N[C@@H](CO)C(N)=O` [S F D F S acetyl amide] (Ac-SFDFS-NH2), less than 1. Same read-out and setting: as for `CC(C)COC(=O)N[C@@H](CC(=O)O)C(=O)N[C@@H](Cc1ccccc1)C(=O)N1CCCCC1`, the figure is 0. For `CC(C)C[C@H](NC(=O)c1ccc2ccccc2n1)C(=O)N[C@@H](CC(=O)O)C(=O)N[C@@H](Cc1ccccc1)C(=O)N1CCC[C@@H]1C(N)=O` [X L D F p 2-quinolinecarbonyl amide] (Quinaldoyl-LDF[dP]-NH2), the “RELATIVE POTENCY (relative peptide inhibition of VLA-4 binding CS-1)” value was determined as 4. Still for that read-out and setting: for `CC[C@H](C)[C@H](N)C(=O)N[C@@H](CC(C)C)C(=O)N[C@@H](CC(=O)O)C(=O)N[C@H](C(=O)N1CCC[C@H]1C(=O)N[C@H](C(=O)N[C@@H](CC(C)C)C(=O)N[C@@H](CC(=O)O)C(=O)N[C@H](C(=O)N1CCC[C@H]1C(N)=O)C(C)C)[C@@H](C)CC)C(C)C` [I L D V P I L D V P free amine amide] (H-ILDVPILDVP-NH2) the value was 2; for `CC(C)C[C@H](NC(=O)CCC1CCCCC1)C(=O)N[C@@H](CC(=O)O)C(=O)N[C@H](C(=O)N1CCC[C@@H]1C(N)=O)C(C)C` [X L D V p cyclohexanepropionyl amide], 1.

As to `CC(C)C[C@H](NC(=O)c1cc[nH]n1)C(=O)N[C@@H](CC(=O)O)C(=O)N[C@@H](Cc1ccccc1)C(=O)N1CCC[C@@H]1C(N)=O` [X L D F p pyrazolecarbonyl amide] (X14-LDF[dP]-NH2; N-terminus assumed), the “RELATIVE POTENCY (relative peptide inhibition of VLA-4 binding CS-1)” value stood at 35. On the same count and under the same terms, for `CC(C)C[C@H](NC(=O)C1CCCCC1)C(=O)N[C@@H](CC(=O)O)C(=O)N[C@H](C(=O)N1CCC[C@@H]1C(N)=O)C(C)C` [X L D V p cyclohexanecarbonyl amide] the value was 5; for `CC(C)C[C@H](N)C(=O)N[C@@H](CC(=O)O)C(=O)N[C@@H](Cc1ccccc1)C(N)=O` [L D F free amine amide] (H-Leu-Asp-Phe-NH2), 0.

Staying with this assay, now noted: normalized IC50 relative to standard peptide of SEQ ID NO:3 (=1); about one-tenth or less of the standard is assigned zero.
Consider `CCCCNC(=O)[C@H](Cc1ccccc1)NC(=O)[C@H](CC(=O)O)NC(=O)[C@H](CC(C)C)NC(=O)Cc1ccccc1` [X L D F Z phenylacetyl n-butylamide] (PhAc-Leu-Asp-Phe-NHBu), for which the “RELATIVE POTENCY (relative peptide inhibition of VLA-4 binding CS-1)” value turned out to be 3. The same measure, in the same setting: as for `CC(C)C[C@H](NC(=O)Cc1ccccc1)C(=O)N[C@@H](CC(=O)O)C(=O)NC1Cc2ccccc2N(CCN2CCOCC2)C1=O` (some centres unmarked), the figure is 20; as for `NC(=O)[C@H]1CCCN1C(=O)[C@H](Cc1ccccc1)NC(=O)[C@H](CC(=O)O)NC(=O)[C@H](CC1CCCCC1)NC(=O)c1ccccc1` (Bz-[Cha]DF[dP]-NH2), 17. Still for that read-out and setting: for `CC(C)C[C@H](NC(=O)Cc1ccccc1)C(=O)N[C@@H](CC(=O)O)C(=O)N[C@@H](Cc1ccccc1)C(N)=O` [X L D F phenylacetyl amide] (PhAc-Leu-Asp-Phe-NH2) the value was 1; for `CC(C)C[C@H](NC(=O)Cc1ccccc1)C(=O)N[C@@H](CC(=O)O)C(=O)NCC(=O)N1CCOCC1` [X L D G Z phenylacetyl morpholinamide] (PhAc-Leu-Asp-Gly-Morpholide), 9; for `CC(C)C[C@H](NC(=O)Cc1ccccc1)C(=O)N[C@@H](CC(=O)O)C(=O)NC1Cc2ccccc2NC1=O` (some centres unmarked), 31. Still for that read-out and setting: for `CC(C)C[C@H](NC(=O)Cc1ccccc1)C(=O)N[C@@H](CC(=O)O)C(=O)N[C@@H](Cc1ccccc1)C(=O)N1CCCC1CO` (some centres unmarked) the value was 184; for `CC(C)C[C@H](NC(=O)Cc1ccccc1)C(=O)N[C@@H](CC(=O)O)C(=O)NNC(=O)OC(C)(C)C` [X L D Z phenylacetyl N'-t-Boc-hydrazide], 2; for `CC(C)C[C@H](NC(=O)Cc1ccccc1)C(=O)N[C@@H](CC(=O)O)C(=O)N[C@@H](Cc1ccc(O)cc1)C(=O)N1CCC[C@@H]1C(N)=O` [X L D Y p phenylacetyl amide, N-phenylacetyl-Leu-Asp-Tyr-D-Pro-NH2] (PhAc-LDY[dP]-NH2), 640. With `CC(C)C[C@H](NC(=O)Cc1ccccc1)C(=O)N[C@@H](CC(=O)O)C(=O)N[C@@H](CCc1ccccc1)C(=O)N1CCC[C@@H]1C(N)=O` (PhAc-LD[hPhe][dP]-NH2), the “RELATIVE POTENCY (relative peptide inhibition of VLA-4 binding CS-1)” value is 94. `CC(C)C[C@H](NC(=O)Cc1ccccc1)C(=O)N[C@@H](CC(=O)O)C(=O)NN(Cc1ccccc1)C(=O)C1CCCC1`: the “RELATIVE POTENCY (relative peptide inhibition of VLA-4 binding CS-1)” value is recorded as 1.

The assay is the same for the next values; noted with them: normalized IC50 relative to standard peptide of SEQ ID NO:3 (=1); about one-tenth or less of the standard is assigned zero; listed as Leu-Asp-Val (LDV) N-free amine C-amide.
On to `CC(C)C[C@H](N)C(=O)N[C@@H](CC(=O)O)C(=O)N[C@H](C(N)=O)C(C)C` [L D V free amine amide, reference compound] (H-Leu-Asp-Val-NH2), for which the “RELATIVE POTENCY (relative peptide inhibition of VLA-4 binding CS-1)” value is recorded as “zero”.

The assay is the same for the next values; noted with them: normalized IC50 relative to standard peptide of SEQ ID NO:3 (=1); about one-tenth or less of the standard is assigned zero; listed as X L D Y P phenylacetyl amide.
For `CC(C)C[C@H](NC(=O)Cc1ccccc1)C(=O)N[C@@H](CC(=O)O)C(=O)N[C@@H](Cc1ccc(O)cc1)C(=O)N1CCC[C@@H]1C(N)=O` [X L D Y p phenylacetyl amide, N-phenylacetyl-Leu-Asp-Tyr-D-Pro-NH2] (PhAc-LDY[dP]-NH2), the “RELATIVE POTENCY (relative peptide inhibition of VLA-4 binding CS-1)” value is reported as 405.
